Literature values, collected in patent US20110269740A1, “JAK KINASE MODULATING COMPOUNDS AND METHODS OF USE THEREOF” (Ambit Biosciences Corporation, priority 2008, published 2011).
Read-outs that look alike come from different tables or passages of the source.

How the values were obtained:
[1] = test system: CML cell lines such as 32Dp210 and K562, as well as mouse Bcr-Abl+32D cells; conditions: CML cell lines 32Dp210, K562, mouse Bcr-Abl+32D
[2] = test system: BCR-Abl+BaF3 cells which carried the Abl T315I mutation; conditions: imatinib-resistant
[3] = test system: prostate cancer cell DU145
transplant rejection [4] = conditions: murine heterotopic heart transplant model, orally available
transplant rejection [5] = conditions: non-human primate renal transplant model, orally available

SMILES | downstream effect on c-Myc [1] | apoptosis [2] | apoptosis [3] | prevention of transplant rejection (transplant rejection [4]) | prevention of transplant rejection (transplant rejection [5])
N#C/C(=C/c1ccc(O)c(O)c1)C(=O)NCc1ccccc1 [AG490] | reduction of c-Myc | induce apoptosis | induced apoptosis |  | 
C[C@@H]1CCN(C(=O)CC#N)C[C@@H]1N(C)c1ncnc2[nH]ccc12 [CP-690550] |  |  |  | efficacy in preventing transplant rejection | efficacy in preventing transplant rejection
